For experiment [1], the system named is HIV. To be noted: R. Nagorny et al., AIDS, 7: 129-130 (1993); cited from earlier work.
Experiment [2] addresses T1, HIV-1 Protease (Human immunodeficiency virus type 1 group M subtype B, UniProt P04585).
T1 construct: purchased Bachem Bioscience Inc
The experiment in a line: HIV Protease Inhibition (hydrolysis of undecapeptide Substrate III, HPLC). The class given is biochemical. As to the method: 1.0 mM dithiothreitol (DTT) was prepared fresh daily in 0.1% polyethylene glycol (mw 8000) 80 mM NaOAc, 160 mM NaCl, 1.0 mM EDTA, and brought to pH 4.7 with HCl.
The enzyme is obtained from Bachem Bioscience Inc. The undiluted enzyme is thawed from -80° C. and diluted 50-fold with DTT buffer. The solution is always kept at 0° C. on ice water and used in the experiment within 20 minutes after thawing.
Substrate III from Bachem Bioscience Inc. is the undecapeptide H-His-Lys-Ala-Arg-Val-Leu-p-Nitrophenylalanine-Glu-Ala-Norleucine-Ser-NH2 (>97% purity). A 200 μM stock solution in DTT buffer is prepared and stored on ice. Substrate solution is prepared fresh daily.
10 mM inhibitor (I) in dimethyl sulfoxide (DMSO) is diluted to 200 μM with DTT buffer. From the 200 μM stock solution is made a 10 μM stock solution with 2% DMSO in DTT buffer. The two inhibitor solutions are used to make final (I)=100, 50, 20, 10, 5, 0.5 and 0 μM with 2% DMSO in DTT buffer in each reaction well (total inhibitor volume of 50 μl).
To each reaction well is added 20 μl of substrate (final concentration of 40 μM), 50 μl of inhibitor (at a concentration such that final dilution will produce the test concentration) and 20 μl of DTT buffer. The reaction plate (96 wells) is incubated at 37° C. for at least 5 minutes.
10 μl of the diluted protease is added to the reaction well while the reaction plate is shaking. Once shaken for 10 seconds, the plate is returned to the heating block at 37° C. (Final reaction volume=100 μl)
The reaction is incubated for 5 minutes at 37° C. The reaction is stopped by placing the reaction plate on the shaker and adding 20 μl of 10% trifluoroacetic acid (TFA) and shaking for 10 seconds. The amount of proteolysis is then determined by separation of noncleaved substrate and two cleaved products with reverse-phase HPLC, while measuring absorbance at 220 nm to determine the relative peak areas of the three components. The relative peak areas are used to calculate % conversion to product as a function of inhibitor concentration. The data is plotted as % Control (the ratio of % conversion in the presence and absence of inhibitor×100) versus inhibitor concentration and fit with the equation Y=100/1+(X/IC50)^A, where IC50 is the inhibitor concentration at 50% inhibition and A is the slope of the inhibition curve.

For experiment [3], the system named is HIV-1iiib. Description: Anti-HIV-1 activity in H9 cells (acute infection, reverse transcriptase assay). It counts as cell-based. To be noted: Human immunodeficiency virus 1, acute HIV-1iiib infection, multiplicity of infection 0.01, 4 and 7 days post infection, 0.2% DMSO, read-out: Therapeutic Concentration for 50% Protection of Cells. As for the experimental part: Using the general methods of Pauwels et al., (J. Virol. Methods, 16: 171-185 (1987) and Mann et al. (AIDS Research and Human Retroviruses, 253-255 (1989)) anti-viral assays of acute HIV-1 infection were performed in the H9 cell line. Cultures were batch infected in 1 ml of RPM1 1640 media/10% fetal calf serum containing 10^7 cells and 10^5 infectious doses of HIV-1iiib for an effective multiplicity of infection of 0.01. After 2 hours of viral absorption, cells were washed once and plated in 96-well microtiter plates at a density of 10^4 cells per well. Test compounds were added to produce the desired concentration of drug and 0.2% DMSO in a final volume of 200 μl. Uninfected parallel cultures were maintained for XTT cytotoxicity assay at 7 days post infection. Cultures were tested for viral replication by reverse transcriptase assay at 4 and 7 days post infection.

[4] abbreviates: pH 4.7, 37° C., 40 μM substrate, 2% DMSO, 5 minutes, read-out: 50% Inhibition Concentration.

Structures are written as SMILES. Like-named read-outs stand apart in the source and are kept apart here.

For `CC(=O)CC(c1ccccc1)c1c(O)c2ccccc2oc1=O` (stereo not drawn) [Warfarin, 3-(α-acetonylbenzyl)4-hydroxycoumarin], the “inhibiting cell-free and cell-mediated HIV infection” value in experiment [1] was “inhibiting cell-free and cell-mediated HIV infection”.
Consider `COc1ccc2c(O)c(CCCCc3ccccc3OC)c(=O)oc2c1` [Example 22, 4-Hydroxy-7-methoxy-3-4-(2-methoxyphenyl)butyl!-2H-1-benzopyran-2-one], for which the IC50 in experiment [2] turned out to be 1400 nM.
In the case of `CCOC(=O)c1cccc(OCCCc2c(O)c3ccccc3oc2=O)c1` [Example 8, Ethyl 3-3-(4-hydroxy-2-oxo-2H-1-benzopyran-3-yl)propoxy!benzoate], in experiment [2] (read-out: 50% Inhibition Concentration), the IC50 was 500 nM. The EC50 in experiment [3] worked out at 58000 nM.
On to `O=c1oc2ccccc2c(O)c1CCCCc1ccccc1O` [Example 14, 4-Hydroxy-3-4-(2-hydroxyphenyl)butyl!-2H-1-benzopyran-2-one], for which, in experiment [2] (setting [4]), the IC50 is 2800 nM.
For `O=c1oc2ccccc2c(O)c1C(SC1CCCCC1)c1ccccc1` (stereo not drawn) [Example 42, 3-(Cyclohexylthio)phenylmethyl!-4-hydroxy-2H-1-benzopyran-2-one], the IC50 in experiment [2] was determined as 400 nM.
The same measure, in the same setting: to `N#Cc1cccc(OCCCc2c(O)c3ccccc3oc2=O)c1` [Example 37, 3-3-(3-Cyanophenoxy)propyl!-4-hydroxy-2H-1-benzopyran-2-one] belongs 600 nM.
In the case of `COc1ccccc1CCCCc1c(O)c2ccccc2oc1=O` [Example 13, 4-Hydroxy-3-4-(2-methoxyphenyl)butyl!-2H-1-benzopyran-2-one], in experiment [2] (setting [4]), the IC50 was found to be 1700 nM. The EC50 in experiment [3] was found to be 13000 nM.
Regarding `COc1ccccc1CCCCc1c(O)c2ccc(O)cc2oc1=O` [Example 43, 4,7-Dihydroxy-3-4-(2-methoxyphenyl)butyl!-2H-1-benzopyran-2-one], the IC50 in experiment [2] (setting [4]) came to 500 nM.
The same measure, in the same setting: the result for `O=c1oc2ccccc2c(O)c1CCCOc1cccc(CO)c1` [Example 10, 4-Hydroxy-3-3-(3-hydroxymethylphenoxy)propyl!-2H-1-benzopyran-2-one] reads 1200 nM; that for `O=C(O)c1cccc(OCCCc2c(O)c3ccccc3oc2=O)c1` [Example 9, 3-3-(4-Hydroxy-2-oxo-2H-1-benzopyran-3-yl)propoxy!benzoic acid], 5000 nM.
In experiment [2], `O=c1oc2ccccc2c(O)c1CCCOc1cccc(Cl)c1` [Example 7, 3-3-(3-Chlorophenoxy)propyl!-4-hydroxy-2H-1-benzopyran-2-one] showed an IC50 of 1300 nM.
On to `COc1ccccc1CCCCc1c(O)c2cccc(C)c2oc1=O` [Example 23, 4-Hydroxy-3-4-(2-methoxyphenyl)butyl!-8-methyl-2H-1-benzopyran-2-one], for which the IC50 in experiment [2] (setting [4]) was 5000 nM.
The same measure, in the same setting: to `COc1ccc(OCCCc2c(O)c3ccccc3oc2=O)cc1` [Example 4, 4-Hydroxy-3-3-(4-methoxyphenoxy)propyl!-2H-1-bensopyran-2-one] belongs 1900 nM.

Source of the values: patent US5510375A, “Coumarin derivatives as protease inhibitors and antiviral agents” (Warner-Lambert Company, priority 1993, dated 1996).
